Assay results reported in US20110263454A1, “Methods of Identifying Functional Characteristics of Promoters, Transcription Modifying Proteins and Transcription Modulating Agents” (Salk Institute for Biological Studies, priority 2008, published 2011).

Tests used:
[1] = tested on: mPgc1b promoter; experiment: NHR-promoter luciferase screen, mPgc1b promoter; assay type: cell-based, mouse; details: for Luc. act., normalized to lacZ / Normalized Luc. act., normalized to control: PGC1b promoter reporter, co-transfected HR, without or with its ligand; for Normalized Luc. act., normalized to control: relative to control; for luciferase activity normalized to lacZ activity and to a control, mPgc1b: mPgc1b promoter-luciferase, CV-1 cells, NHR +/- ligand, control = 1.00
Procedure: Briefly, there were co-expressed 50 ng of each NHR/NHR homodimer or NHR/RXR heterodimer with 100 ng promoter/luciferase construct and 50 ng of LacZ (as a control for transfection efficiency) in CV-1 cells using Fugene HD (Roche) as a transfection reagent (alternatively or additionally, a CMV-YFP construct can be used as a transfection control). Each of the nuclear hormone receptors that were used in these experiments was cloned into a pcDNA3.1 vector and comprised a C-terminally linked V5H6 tag.
(§1) The promoters that facilitate transcription of the indicated gene products that were tested using the protocols described herein are listed in the first row of the table. The nuclear hormone receptors and, where applicable, ligands that were assayed for their transcriptional effects on the promoters are listed in the first column of the table. The data represent the luciferase activity of each sample normalized to both the lacZ activity of that sample and to a control, e.g., no NHR or ligand, as customary in the art. As described previously, these normalizations allow the transcriptional activity of each reporter cell to be compared to other samples.
(§2) Tables 7-40 show the transcriptional effects of the hormone receptors, and, where applicable, ligands (orphan receptors are screened without ligand), on each individual promoter. […] The control data of each table are shown in their last rows.

[2] = tested on: mPOMC promoter; experiment: NHR-promoter luciferase screen, mPOMC promoter; assay type: cell-based, mouse; details: for Results of assays of transcription factor (+/- ligand) with mPOMC: Table 6d, luciferase activity relative to control (control = 1.00); for Luc. act., normalized to lacZ / Normalized Luc. act., normalized to control: mPOMC promoter, HR component with or without ligand; for Normalized Luc. act., normalized to control: relative to control
Procedure: (§3) The use, feasibility, and reproducibility of the functional NHR-promoter screen in a 48-well format have been tested validated. Briefly, there were co-expressed 50 ng of each NHR/NHR homodimer or NHR/RXR heterodimer with 100 ng promoter/luciferase construct and 50 ng of LacZ (as a control for transfection efficiency) in CV-1 cells using Fugene HD (Roche) as a transfection reagent (alternatively or additionally, a CMV-YFP construct can be used as a transfection control). Each of the nuclear hormone receptors that were used in these experiments was cloned into a pcDNA3.1 vector and comprised a C-terminally linked V5H6 tag. Twenty-four hours after transfection, appropriate ligands were added, where applicable, (see Table 5 for various ligands and concentrations and after 48 hrs, samples were assayed for luciferase and LacZ activity. To measure for luciferase activity 15 ul of sample was added to 30 ul of luciferase buffer (20 mM tricine, 1.07 mM MgCarbonate, 2.67 mM MgSulfate, 0.1 mM Naz-EDTA, 5 mM DTT, 5 mM ATP, 0.15 mg/ml CoA, 0.5 mM Luciferin), mixed briefly, and run in a Perkin Elmer Victor 5 luminometer. Thus, the functional NHR-promoter screen was used to observe the transcriptional activity of 29 promoters from various physiological pathways including inflammation, lipid and sugar metabolism, cholesterol transport, xenobiotic metabolism, and circadian rhythm.
as §1, §2

[3] = tested on: mAdiponectin promoter; experiment: NHR-promoter luciferase screen, mAdiponectin promoter; assay type: cell-based, mouse; details: for Luc. act., normalized to lacZ / Normalized Luc. act., normalized to control: Adiponectin, HR component without or with its ligand; for mAdiponectin promoter reporter activity: transcription factor +/- ligand, control = 1.00
Procedure: as §3, §1, §2

[4] = tested on: mDio1 promoter; experiment: NHR-promoter luciferase screen, mDio1 promoter; assay type: cell-based, mouse; details: for Luc. act., normalized to lacZ / Normalized Luc. act., normalized to control: Dio1, HR component without or with its ligand; for mDio1 promoter reporter activity: transcription factor +/- ligand, control = 1.00
Procedure: as §3, §1, §2

[5] = tested on: hTNFa promoter; experiment: NHR-promoter luciferase screen, hTNFa promoter; assay type: cell-based, human; details: for Luc. act., normalized to lacZ / Normalized Luc. act., normalized to control: TNFa promoter, HR component without or with ligand; for hTNFa promoter reporter activity: transcription factor +/- ligand, control = 1.00
Procedure: as §3, §1, §2

[6] = tested on: hIFNg promoter; experiment: NHR-promoter luciferase screen, hIFNg promoter; assay type: cell-based, human; details: for Luc. act., normalized to lacZ / Normalized Luc. act., normalized to control: IFNg promoter, HR component without or with ligand; for hIFNg promoter reporter activity: transcription factor +/- ligand, control = 1.00
Procedure: as §3, §1, §2

Substance	Luc. act., normalized to lacZ [1]	Normalized Luc. act., normalized to control [1]	luciferase activity normalized to lacZ activity and to a control, mPgc1b [1]	Results of assays of transcription factor (+/- ligand) with mPOMC [2]	Luc. act., normalized to lacZ [2]	Normalized Luc. act., normalized to control [2]	Luc. act., normalized to lacZ [3]	Normalized Luc. act., normalized to control [3]	mAdiponectin promoter reporter activity [3]	Luc. act., normalized to lacZ [4]	Normalized Luc. act., normalized to control [4]	mDio1 promoter reporter activity [4]	Luc. act., normalized to lacZ [5]	Normalized Luc. act., normalized to control [5]	hTNFa promoter reporter activity [5]	Luc. act., normalized to lacZ [6]	Normalized Luc. act., normalized to control [6]	hIFNg promoter reporter activity [6]
VDR: Vitamin D Receptor (NR1I1), cDNA driver	6.85	0.6	0.58	1.16	79.8	1.2	57.4	0.9	0.91	7.6	1.7	1.71	986.3	1.0	1.00	16.06	1.0	1.01
PNR: Photoreceptor-specific Nuclear Receptor (NR2E3), cDNA driver	4.9	0.4	0.42	0.81	56.0	0.8	70.7	1.1	1.13	6.4	1.4	1.44	558.4	0.6	0.57	11.3	0.7	0.71
GR: Glucocorticoid Receptor (NR3C1), cDNA driver	3.2	0.3	0.27	0.50	34.5	0.5	33.2	0.5	0.53	2.5	0.6	0.55	463.3	0.5	0.47	8.9	0.6	0.56
NR4a1: NR4a1 (NR4A1; NUR77), nuclear hormone receptor cDNA driver	17.1	1.4	1.45	3.58	246.9	3.6	85.6	1.4	1.36	10.9	2.4	2.45	1575.8	1.6	1.60	35.6	2.2	2.24
ERR1: Estrogen Related Receptor α (NR3B1, ERRa), cDNA driver	8.8	0.7	0.75	1.00	68.9	1.0	49.2	0.8	0.78	6.2	1.4	1.39	1234.7	1.3	1.26	18.5	1.2	1.17
